The results in this text go back to patent US8134015B2, “Compound inhibiting in vivo phosphorous transport and medicine containing the same” (Kyowa Hakko Kirin Co., Ltd., priority 2003, dated 2012).

SMILES strings stand for the structures.

One test has as its target T1, rat NaPi-2b (Rattus norvegicus, UniProt Q9JJ09).
T1 construct: expressed in transfected cells; host or cells: Xenopus oocytes injected with cRNA
T1 sequence (Q9JJ09 1-695): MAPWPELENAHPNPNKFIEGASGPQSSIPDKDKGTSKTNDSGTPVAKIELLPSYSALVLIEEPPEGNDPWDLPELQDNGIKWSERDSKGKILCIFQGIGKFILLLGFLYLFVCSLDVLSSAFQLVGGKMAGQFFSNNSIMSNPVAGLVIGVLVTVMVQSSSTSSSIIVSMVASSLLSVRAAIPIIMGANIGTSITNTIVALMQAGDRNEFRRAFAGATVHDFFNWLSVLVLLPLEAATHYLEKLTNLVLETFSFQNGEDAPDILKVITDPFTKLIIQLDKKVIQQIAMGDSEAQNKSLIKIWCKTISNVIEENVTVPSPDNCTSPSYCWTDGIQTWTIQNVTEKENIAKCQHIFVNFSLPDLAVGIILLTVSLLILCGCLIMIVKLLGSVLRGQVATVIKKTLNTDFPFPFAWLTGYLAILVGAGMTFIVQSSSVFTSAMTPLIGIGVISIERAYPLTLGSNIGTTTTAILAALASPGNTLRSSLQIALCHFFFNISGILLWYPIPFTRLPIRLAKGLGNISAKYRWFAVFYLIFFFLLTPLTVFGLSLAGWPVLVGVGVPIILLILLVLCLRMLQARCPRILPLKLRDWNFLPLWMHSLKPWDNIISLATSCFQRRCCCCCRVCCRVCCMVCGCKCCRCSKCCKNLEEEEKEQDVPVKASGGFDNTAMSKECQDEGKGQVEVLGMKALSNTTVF
In words: Sodium-dependent phosphate uptake of Xenopus oocytes which expressed NaPi-2b (32P). The class given is cell-based. The following applies: Xenopus oocytes expressing rat NaPi-2b, 32P radioactive phosphorus; read-out: IC50 (phosphate uptake inhibitory activity). The procedure, abridged: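 Oocytes injected with rat NaPi-2b cRNA, cultured 2 d, then 32P uptake measured with compound. Values: % inhibition at 300 and 100 μM, both from one inhibition curve.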

A further test deals with T2, human NaPi-2a (Homo sapiens, UniProt Q06495).
T2 construct: expressed in transfected cells
T2 sequence (Q06495 1-639): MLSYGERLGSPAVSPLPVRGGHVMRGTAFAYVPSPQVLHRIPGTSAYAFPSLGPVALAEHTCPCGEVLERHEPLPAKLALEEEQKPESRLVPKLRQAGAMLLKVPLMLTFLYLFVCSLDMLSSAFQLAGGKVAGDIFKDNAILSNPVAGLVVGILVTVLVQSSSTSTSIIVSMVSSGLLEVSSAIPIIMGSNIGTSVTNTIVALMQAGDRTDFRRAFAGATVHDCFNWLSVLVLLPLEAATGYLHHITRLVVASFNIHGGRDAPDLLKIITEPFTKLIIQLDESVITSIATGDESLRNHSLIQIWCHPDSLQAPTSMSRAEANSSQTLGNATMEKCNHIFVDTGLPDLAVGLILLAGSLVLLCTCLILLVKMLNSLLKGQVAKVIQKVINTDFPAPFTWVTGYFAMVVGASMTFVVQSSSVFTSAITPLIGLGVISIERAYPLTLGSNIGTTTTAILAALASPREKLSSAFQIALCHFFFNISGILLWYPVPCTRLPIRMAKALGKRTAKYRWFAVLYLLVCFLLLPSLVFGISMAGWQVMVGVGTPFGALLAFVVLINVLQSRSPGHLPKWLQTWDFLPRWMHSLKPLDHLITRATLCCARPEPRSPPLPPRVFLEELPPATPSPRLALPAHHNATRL
In words: Sodium-dependent phosphate uptake of Xenopus oocytes which expressed NaPi-2a (32P). To be noted: Xenopus oocytes expressing human NaPi-2a; for IC50: phosphate uptake, five concentration levels. It counts as cell-based. The text has this:
Experiment of Sodium-Dependent Phosphate Uptake of Xenopus oocytes which Expressed NaPi-2a
In the test, a group with the addition of choline chloride (Choline Cl) was used as a negative control for nonspecific uptake, and PFA (phosphonoformic acid) was used as a positive control for phosphate transport inhibition.

For the compound `Cc1csc(NC(=O)c2cccc(CN3CCC4(CC3)OCCO4)c2)c1C(=O)N/N=C/c1ccc(F)cc1` [Compound 834, 3-(1,4-Dioxa-8-aza-spiro[4,5]dec-8-ylmethyl]-N-[3-(4-fluoro-benzylidene-hydrazinocarbonyl)-4-methyl-thiophen-2-yl]-benzamide], the values for the concentration for half-maximal inhibition (IC50) at rat NaPi-2b and against human NaPi-2a were 19 µM and 52.1 µM, respectively.
Turning to `Cc1ccc(/C=N/NC(=O)c2cc(N3CCCCC3)ccc2NC(=O)c2cccc(CSCCO)c2)cc1` [Compound 881, 3-(2-Hydroxy-ethylsulfanylmethyl)-N-[2-(4-methyl-benzylidene-hydrazinocarbonyl)-4-piperidin-1-yl-phenyl]-benzamide], the IC50 on rat NaPi-2b worked out at 0.18 µM; at human NaPi-2a it was 2.67 µM.
The corresponding values for `Cc1ccc(/C=N/NC(=O)c2cc(Cl)ccc2NC(=O)c2cccc(CSCC(O)CO)c2)cc1C` (centres unmarked) [Compound 1009, N-[4-Chloro-2-(3,4-dimethyl-benzylidene-hydrazinocarbonyl)-phenyl]-3-(2,3-dihydroxy-propylsulfanylmethyl)-benzamide] are 0.1 µM and 1.41 µM.
Taken in the same sequence, the figures for `Cc1sc(NC(=O)c2cccc(CN(CC(C)O)CC(C)O)c2)c(C(=O)N/N=C/c2ccc(F)cc2)c1C` (centres unmarked) [Compound 846, 3-{[Bis-(2-hydroxy-propyl)-amino]-methyl}-N-[3-(4-fluoro-benzylidene-hydrazinocarbonyl)-4,5-dimethyl-thiophen-2-yl]-benzamide] were less than 3 µM and less than 3 µM.
Taken in the same sequence, the figures for `CCN(CC)CCN(CCN(CC)CC)Cc1cccc(C(=O)Nc2scc(C)c2C(=O)N/N=C/c2cccc(F)c2)c1` [Compound 841, 3-{[Bis-(2-diethylamino-ethyl)-amino]-methyl}-N-[3-(3-fluoro-benzylidene-hydrazinocarbonyl)-4-methyl-thiophen-2-yl]-benzamide] were less than 3 µM and 19.9 µM.
On to `CCN(CC)CCN(C)Cc1cccc(C(=O)Nc2ccc(N3CCCCC3)cc2C(=O)N/N=C/c2cccc(F)c2)c1` [Compound 861, 3-{[(2-Diethylamino-ethyl)-methyl-amino]-methyl}-N-[2-(3-fluoro-benzylidene-hydrazinocarbonyl)-4-piperidin-1-yl-phenyl]-benzamide], for which the concentration for half-maximal inhibition (IC50) on rat NaPi-2b is 0.52 µM; against human NaPi-2a, less than 1 µM.
With `Cc1ccc(/C=N/NC(=O)c2c(NC(=O)c3cccc(CN4CCC(O)CC4)c3)sc3c2CCCC3)cc1C` [Compound 633, N-[3-(3,4-Dimethyl-benzylidene-hydrazinocarbonyl)-4,5,6,7-tetrahydro-benzo[b]thiophen-2-yl]-3-(4-hydroxy-piperidin-1-ylmethyl)-benzamide], the 50% inhibitory concentration (IC50) at rat NaPi-2b amounted to 1.19 µM; at human NaPi-2a it was 13.5 µM.
The corresponding values for `Cc1csc(NC(=O)c2cccc(CN(CC(C)O)CC(C)O)c2)c1C(=O)N/N=C/c1ccc(Cl)c(C(F)(F)F)c1` (centres unmarked) [Compound 591, 3-{[bis-(2-hydroxy-propyl)-amino]-methyl}-N-[3-(4-chloro-3-trifluoromethyl-benzylidene-hydrazinocarbonyl)-4-methyl-thiophen-2-yl]-benzamide] are 1.01 µM and 4.04 µM.
Taken in the same sequence, the figures for `O=C(Nc1ccc(N2CCCCC2)cc1C(=O)N/N=C/c1ccc(Cl)c(C(F)(F)F)c1)c1cccc(CSCCO)c1` [Compound 884, N-[2-(4-Chloro-3-trifluoromethyl-benzylidene-hydrazinocarbonyl)-4-piperidin-1-yl-phenyl]-3-(2-hydroxy-ethylsulfanylmethyl)-benzamide] were 0.95 µM and 35.9 µM.
For the compound `COc1ccc(C(=O)Nc2ccc(N3CCCCC3)cc2C(=O)N/N=C/c2cccnc2)cc1OC` [Compound 936, 3,4-Dimethoxy-N-[4-piperidin-1-yl-2-(pyridin-3-ylmethylene-hydrazinocarbonyl)-phenyl]-benzamide], the IC50 at rat NaPi-2b came out at 5.59 µM; against human NaPi-2a it was 30 µM.
As to `CC(O)CN(Cc1cccc(C(=O)Nc2ccc(F)cc2C(=O)N/N=C/c2cccc(F)c2)c1)CC(C)O` (centres unmarked) [Compound 987, 3-{[Bis-(2-hydroxy-propyl)-amino]-methyl}-N-[4-fluoro-2-(3-fluoro-benzylidene-hydrazinocarbonyl)-phenyl]-benzamide], the half-maximal inhibitory concentration (IC50) at rat NaPi-2b was less than 3 µM; against human NaPi-2a, 16.3 µM.
In the case of `Cc1csc(NC(=O)c2cccc(CN3CCC4(CC3)OCCO4)c2)c1C(=O)N/N=C/c1cccc(F)c1` [Compound 835, 3-(1,4-Dioxa-8-aza-spiro[4,5]dec-8-ylmethyl]-N-[3-(3-fluoro-benzylidene-hydrazinocarbonyl)-4-methyl-thiophen-2-yl]-benzamide], the IC50 on rat NaPi-2b is 6.46 µM; against human NaPi-2a, 11 µM.
Consider `CCN(CC)CCSCc1cccc(C(=O)Nc2ccc(N3CCCCC3)cc2C(=O)N/N=C/c2ccc(Cl)c(C(F)(F)F)c2)c1` [Compound 878, N-[2-(4-Chloro-3-trifluoromethyl-benzylidene-hydrazinocarbonyl)-4-piperidin-1-yl-phenyl]-3-(2-diethylamino-ethylsulfanylmethyl)-benzamide], for which the figures for the IC50 on rat NaPi-2b and on human NaPi-2a were less than 0.3 µM and 7.22 µM, respectively.
With `CCN(CC)CCNCc1cccc(C(=O)Nc2sc3c(c2C(=O)N/N=C/c2ccc(C)cc2)CCC3)c1` [Compound 811, 3-[(2-Diethylamino-ethylamino)-methyl]-N-[3-(4-methyl-benzylidene-hydrazinocarbonyl)-5,6-dihydro-4H-cyclopenta[b]thiophen-2-yl]-benzamide], the half-inhibitory concentration (IC50) at rat NaPi-2b is 9.11 µM; against human NaPi-2a, 37.2 µM.
Regarding `CCN(CC)CCN(C)Cc1cccc(C(=O)Nc2ccc(N3CCCCC3)cc2C(=O)N/N=C/c2ccc(OC)cc2)c1` [Compound 863, 3-{[(2-Diethylamino-ethyl)-methyl-amino]-methyl}-N-[2-(4-methoxy-benzylidene-hydrazinocarbonyl)-4-piperidin-1-yl-phenyl]-benzamide], the IC50 at rat NaPi-2b amounted to 1.22 µM; against human NaPi-2a, 6.9 µM.
In the case of `Cc1ccc(/C=N/NC(=O)c2cc(F)ccc2NC(=O)c2cccc(CN(CC(C)O)CC(C)O)c2)cc1` (centres unmarked) [Compound 989, 3-{[Bis-(2-hydroxy-propyl)-amino]-methyl}-N-[4-fluoro-2-(4-methyl-benzylidene-hydrazinocarbonyl)-phenyl]-benzamide], the IC50 on rat NaPi-2b was less than 3 µM; at human NaPi-2a it was 7.84 µM.
As to `Cc1ccc(/C=N/NC(=O)c2cc(Cl)ccc2NC(=O)c2cccc(CSCC(O)CO)c2)cc1` (centres unmarked) [Compound 1008, N-[4-Chloro-2-(4-methyl-benzylidene-hydrazinocarbonyl)-phenyl]-3-(2,3-dihydroxy-propylsulfanylmethyl)-benzamide], the half-maximal inhibitory concentration (IC50) at rat NaPi-2b came out at 0.3 µM; on human NaPi-2a, 2.3 µM.
Turning to `COc1ccc(C(=O)Nc2ccccc2C(=O)N/N=C/C=C/c2ccccc2)cc1OC` [Compound 1, 3,4-Dimethoxy-N-[2-(3-phenyl-allylidene-hydrazinocarbonyl)-phenyl]-benzamide], on rat NaPi-2b, the IC50 was 9.11 µM. Further, the “phosphate uptake inhibitory activity against NaPi-2a” value on human NaPi-2a (FIG. 3, FIG. 4) is “concentration-dependent inhibitory activity”.
As for `CC(O)CN(Cc1cccc(C(=O)Nc2sc3c(c2C(=O)N/N=C/c2ccc(F)cc2)CCCC3)c1)CC(C)O` (centres unmarked) [Compound 629, 3-{[Bis-(2-hydroxy-propyl)-amino]-methyl}-N-[3-(4-fluoro-benzylidene-hydrazinocarbonyl)-4,5,6,7-tetrahydro-benzo[b]thiophen-2-yl]-benzamide], the half-maximal inhibitory concentration (IC50) at rat NaPi-2b turned out to be 3.01 µM; at human NaPi-2a, 12.9 µM.
